Results on three compounds are retold here after patent US9028856B2, “Synergistic pesticide compositions” (priority 2008, dated 2015).

One may read the mortality as the share of the test organisms that died.

The structures appear in SMILES notation. Where two headings read alike, the source gives them in different places.

Series [1] concerns Odorous House ant, Tapinoma sessile. Put plainly: Knockdown/mortality of ant workers under continuous exposure on treated glazed tile. The class given is in vivo. In outline: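 Treatments applied to about 161 cm2 glazed tile and dried overnight, with at least three replicates.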
In series [2] the test system is Cimex lectularius (adults). Description: Efficacy on glazed tiles (acetone solutions or EC formulations), continuous exposure. The series is classed as in vivo. The conditions noted are these: for mortality at 50 mg/m2 / mortality at 10 mg/m2: Cimex lectularius, read-out: % KD and Mortality. As for the experimental part:
Test Insects: Culex quinquefasciatus (adults) (3 minutes exposure time according to USDA Petri Dish Method), Musca domestica (adults), susceptible and resistant strain, Blattella germanica (males), Cimex lectularius (adults) (all: continuous exposure time)
Application: The EC formulation (diluted with water 1:9) were applied as 0.85 ml solutions onto glazed tiles (15 cm×15 cm)
Evaluation: Knock down after 15, and 30 minutes, 1, 2, 3, 4, 6 and 24 hours (mortality)
Test Insects: Culex quinquefasciatus (adults) (3 minutes exposure time according to USDA Petri Dish Method), Cimex lectularius (adults), Acheta domesticus (middle nymphs) (both: continuous exposure time)
Application: The active ingredients were applied as 1 ml acetone solutions onto glazed tiles (15 cm×15 cm)
Evaluation: Knock down after 3, 9 (mosquitoes only), 15, and 30 minutes, 1, 2, 3, 4 and 24 hours (mortality)
Test Insects: Culex quinquefasciatus (adults) (3 minutes exposure time according to USDA Petri Dish Method), Cimex lectularius (adults), (continuous exposure time)
Test Insects: Cimex lectularius, Culex quinquefasciatus, Musca domestica (all adults, susceptible strains)
Application: The active ingredients were applied as 1 ml acetone solutions onto glazed tiles (15 cm×15 cm), continuous exposure time

The test system of series [3] is susceptible/normal German cockroach (Monheim strain), Blattella germanica. Description: Knockdown/mortality of male cockroaches under continuous exposure on treated glazed tile. The series is classed as in vivo. To be noted: ethiprole 0.01% in the absence of the adjuvant (FIG. 55). In a few lines: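 Male cockroaches continuously exposed on treated glazed tile, dried overnight before exposure; at least three replicates. Knockdown/mortality scored at intervals from 5 or 10 min, over runs lasting 20 min to 24 h depending on test.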

In series [4] the test system is Argentine ant, Linepithema humile. Description: Knockdown/mortality of ant workers under continuous exposure on treated glazed tile. The conditions noted are these: glazed tile. In a few lines:
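0.5% AI imidacloprid in acetone, alone or with 0.1, 1.0 or 5.0% additive (benzenepropanoic acid, oleic acid, methyl oleate, methyl linoleate, methyl palmitate or BHA), 1 ml dried overnight on glazed tile (~161 cm^2). Ten workers confined under continuous exposure, water from 3 h; knockdown/mortality scored at intervals and 24 h; ≥3 replicates.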

Where [5] appears, read: 15′, on tiles, insecticide alone (imidacloprid 50 mg/m^2, Bendiocarb 50 mg/m^2, Ethiprole 10 mg/m^2, DTM 1 mg/m^2), no Compound A.
Setting [6] is: 1 h, on tiles, insecticide alone (imidacloprid 50 mg/m^2, Bendiocarb 50 mg/m^2, Ethiprole 10 mg/m^2, DTM 1 mg/m^2), no Compound A.
Where [7] appears, read: 2 h, on tiles, insecticide alone (imidacloprid 50 mg/m^2, Bendiocarb 50 mg/m^2, Ethiprole 10 mg/m^2, DTM 1 mg/m^2), no Compound A.
[8] abbreviates: 3 h, on tiles, insecticide alone (imidacloprid 50 mg/m^2, Bendiocarb 50 mg/m^2, Ethiprole 10 mg/m^2, DTM 1 mg/m^2), no Compound A.
[9] abbreviates: 4 h, on tiles, insecticide alone (imidacloprid 50 mg/m^2, Bendiocarb 50 mg/m^2, Ethiprole 10 mg/m^2, DTM 1 mg/m^2), no Compound A.
[10] abbreviates: 6 h, on tiles, insecticide alone (imidacloprid 50 mg/m^2, Bendiocarb 50 mg/m^2, Ethiprole 10 mg/m^2, DTM 1 mg/m^2), no Compound A.
Where [11] appears, read: 24 h, on tiles, insecticide alone (imidacloprid 50 mg/m^2, Bendiocarb 50 mg/m^2, Ethiprole 10 mg/m^2, DTM 1 mg/m^2), no Compound A.
Setting [12] is: Table 4 (Ex. 1), continuous exposure.
The mark [13] stands for this setting: Table 7 (Ex. 4), continuous exposure.
The mark [14] stands for this setting: Table 8 (Ex. 5), continuous exposure.
Where [15] appears, read: Table 10 (Ex. 7), continuous exposure.
[16] abbreviates: Table 12 (Ex. 9), continuous exposure.
The mark [17] stands for this setting: Table 14 (Ex. 11), continuous exposure.
The mark [18] stands for this setting: Table 16 (Ex. 13), continuous exposure.
Setting [19] is: Table 19 (Ex. 16), continuous exposure.
Where [20] appears, read: Table 20 (Ex. 17), continuous exposure.

On to `CNC(=O)Oc1cccc2c1OC(C)(C)O2` [bendiocarb], for which the “toxicity / efficacy of the substance alone (summary in words)” value in series [1] (odorous house ant, glazed tile) is on record as “no KD/mortality”. Moreover, the “% KD and Mortality” value in series [2] (30′, on tiles, insecticide alone (imidacloprid 50 mg/m^2, Bendiocarb 50 mg/m^2, Ethiprole 10 mg/m^2, DTM 1 mg/m^2), no Compound A) was determined as 100%. The mortality at 50 mg/m2 in series [2] (1 h), in series [2] (2 h), in series [2] (3 h), in series [2] (4 h), in series [2] (6 h) and in series [2] (24 h) was 100% in each case. In series [2], the mortality at 50 mg/m2 was 100%.
For `CC[S+]([O-])c1c(C#N)nn(-c2c(Cl)cc(C(F)(F)F)cc2Cl)c1N` (centres unmarked) [ethiprole], the “mortality in 2 hours” value in series [1] (ethiprole 0.01% in the absence of the adjuvant (FIG. 53)) is “around 4%”. In addition, the “mortality from 5 to 25 hours” value in series [3] was 5-15%. Moreover, the mortality at 10 mg/m2 was 0% in series [2] (setting [5]); 0% in series [2] (setting [6]); 10% in series [2] (setting [7]); 10% in series [2] (setting [8]); 10% in series [2] (setting [9]); 70% in series [2] (setting [10]). Besides, the mortality at 10 mg/m2 in series [2] (setting [11]) is 100%.
As for `O=[N+]([O-])NC1=NCCN1Cc1ccc(Cl)nc1` [imidacloprid], the “Average % Knockdown & Mortality after 2 hr” value is recorded as 0% in series [4] (2 hr, Table 22, imidacloprid/tritylchloride in acetone, continuous exposure); 0% in series [4] (2 hr, Table 25, imidacloprid/dibutyl sebacate (DBS) in acetone); 0% in series [4] (setting [17]); 14% in series [4] (setting [18]); 0% in series [4] (setting [20]). For the same compound, the “Average % Knockdown & Mortality after 4 hr” value came to 0% in series [4] (4 hr, Table 25, imidacloprid/dibutyl sebacate (DBS) in acetone); 7% in series [4] (setting [14]); 0% in series [4] (setting [15]); 0% in series [4] (setting [17]); 0% in series [4] (setting [19]); 7% in series [4] (setting [20]). The “Average % Knockdown & Mortality after 5 hr” value in series [4] (5 hr, Table 22, imidacloprid/tritylchloride in acetone, continuous exposure) is 4%. Further, the results for the “Average % Knockdown & Mortality after 3 hr” value in series [4] (setting [12]), in series [4] (setting [13]) and in series [4] (setting [16]) were 0%, 3% and 0%, respectively. Besides, the “Average % Knockdown & Mortality after 7 hr” value in series [4] (setting [12]) amounted to 0%; in series [4] (setting [13]), 3%; in series [4] (setting [16]) it was 0%. Besides, the “Average % Knockdown & Mortality after 15 min” value in series [4] (setting [14]) and in series [4] (setting [15]) was 0% throughout. Further, the “Average % Knockdown & Mortality after 18 hr” value in series [4] (setting [18]) worked out at 17%. In addition, the “Average % Knockdown & Mortality after 6 hr” value in series [4] (setting [19]) turned out to be 7%. Besides, the mortality at 50 mg/m2 in series [2] (setting [5]), in series [2] (setting [6]), in series [2] (setting [7]), in series [2] (setting [8]), in series [2] (setting [9]) and in series [2] (setting [10]) was 100% in each case. For the same compound, the mortality at 50 mg/m2 in series [2] (setting [11]) was 100%.
